Data set [1] is described as follows: Chlorine sensing by fluorescence titration. It is filed as physicochemical. The source says:
This chlorine detection method seems to be much more sensitive than for halide detection, as chlorine in tap water diluted 1:2 can be measured. Furthermore, because measurement is based on the titration point, the presence of halides in solution would only lower the slope of the fluorescence plots without affecting the titration point. In reverse order of what observed results for halide quenching, sensing of bromine is much less sensitive than chlorine. Visual confirmation of the titration point is possible with a UV lamp, allowing for a low-cost and low-tech method of chlorine determination. It should also be noted that by varying the use of amine-containing molecules used in the syntheses of fluorophores described herein, it was possible to tune the chloride sensing at neutral pH.

Data set [2] is described as follows: Halide fluorescence quenching (Stern-Volmer). The data set is classed as physicochemical. How it is done:
Absorbance Spectra were recorded on Tecan Infinite M200 Pro UV-vis spectroscopy, and fluorescence spectra were recorded on Horiba FluoroMax-4 fluorospectroscopy at concentrations below 0.1 O.D. unless otherwise indicated. Quantum Yields were measured on the Quantum φ Integrating Sphere accessory to the FluoroMax-4, while lifetime measurements were determined through the Time-Correlation Single Photon Counting (TCSPC) accessory to the FluroMax-4. TCSPC was utilized in conjunction with NanoLED pulsed diode light source with peak excitation wavelength at 352 nm and at 10,000 counts peak preset. Emission was collected at the fluorescence λmax, unless otherwise indicated. For all pH-dependence experiments, sample pH was adjusted with sulfuric acid or sodium hydroxide. For all chloride-dependent quenching experiments, magnesium chloride hexahydrate (Sigma Aldrich) was used.
When a fluorophore of [F] absorbs light energy, excitation raises a sub-population of [F] to the excited state, [F*], which then rapidly lose energy along radiative relaxation (kr) or non-radiative relaxation (knr) according to equation 7. If a quencher forms a complex with the excited fluorophore, an extra non-radiative component, kq, is added to equation 7 to account for the additional relaxation pathway that is a function of quencher concentration and its association constant.
[formula] Thus the quenching of fluorescence can be quantitatively analyzed by comparing the affected lifetimes. The Stern-Volmer (SV) relationship is used to determine kq, the bimolecular quenching rate constant for the diffusion coefficients of the fluorophore and quencher, by deriving a plot of τ0/τ versus [Q]:
[formula] Thus the linear slope of the SV plot, KSV, measures the efficiency of the quencher. Since sulfuric acid was used to study proton-induced quenching, the pH value was a better indicator of [H^+] due to incomplete dissociation of sulfuric acid at high concentrations. In the case of multiple quenchers, as will be discussed in this paper, equation 7 must include additional kq terms that result in modified form of equation 12 below:
[formula] If the two quenchers are act independently, the quencher of known quenching rate and concentration can be combined into the Y-intercept term in order to determine the quenching rate of the second, unknown quencher. […]
To translate halide quenching into quantitative sensing applications, a modified Stern-Volmer equation (Equation 14) was used to linearize the effects of two quenchers, protons and the halide being studied, on the fluorescence of CA-Cysteine. […]
Since the measured sample fluorescence is quenched by both protons and halides, the unquenched fluorescence, Io, was defined as the fluorescence of the neutral state CA-Cysteine in the absence of additional proton or halide quenchers. As mentioned above, the effects of protolytic equilibria stabilize around pH 2.2, where CA-Cysteine undergoes 99% conversion from the dianion state and is marked by constant fluorescence intensities (FIG. 13). […] Thus we chose the fluorescence intensity at pH 2.2 (in the absence of halides) as the unquenched reference signal, Io. IH,Cl in equation 23 is the sample fluorescence at the pH and halide concentration indicated. […]

Data set [3] concerns 3T3 cells. Briefly: Fluorescence cell labelling, confocal microscopy. The data set is classed as cell-based, mouse. Particulars: 500 μg/ml for 24 hours; DAPI, FITC, Cy3 channels.
Data set [4] can be described thus: Acid-base titration with NaOH (pKa, protolytic states). It is filed as physicochemical. How it is done: The pKa values of CA-Cys were determined through acid-base titration with NaOH. Titration curves support the presence of two carboxyl groups with close pKa values for two reasons. The molar mass of CA-Cys, 241 g/mol as determined by LC-ESI-MS, matches the molar mass value of 245.6 g/mol determined by titration only when assuming a diprotic acid. Moreover, the long buffered region of the titration curve supports the presence of two carboxyl groups with close pKas that are overlapping the first inflection point, estimated to be at ½ NaOH volume of the end point.
Based on the pKa values determined from 2.4, a theoretical protolytic equilibria was established based on equations 1-3 below: […]

The structures appear in SMILES notation. “Also recorded” adds a separate entry of the source. Bounds are passed on as bounds.

As to `O=C(O)c1cc2n(c(=O)c1)C(C(=O)O)CS2` (centres unmarked) [CA-Cys], the sensitivity to chlorine entry in data set [1] was “sensitive to chlorine”. Besides, the “fluorescence quenching by magnesium sulfate and sodium sulfate” value in data set [2] is on record as “did not quench fluorescence under any conditions”. Also, in data set [2] (compared with chloride), the “fluorescence quenching by bromide and iodide” value was “quenched by bromide and iodide at even greater affinities”. The “fluorescence quenching by magnesium chloride” value in data set [2] (pH 8.2) was “no significant quenching”; in data set [2] (strongly acidic conditions (pH 2.4)), “quenched”. For the same compound, the “fluorescence from cells after uptake” value in data set [3] was “Strong fluorescence was observed; also recorded: strong DAPI-channel fluorescence”. Further, the “pKa1 (3-carboxyl group)” value in data set [4] turned out to be 2.345. Further, the “pKa2 (7-carboxyl group)” value in data set [4] amounted to 3.41. Also, the entries for the “Exists at pH” value in data set [4] (Anion protolytic state), in data set [4] (Dianion protolytic state) and in data set [4] (Neutral protolytic state) were 2.35~3.41, above 3.41 and below 2.35, respectively.

Source of the values: patent US10648917B2, “Luminescent compositions and applications thereof” (THE PENN STATE RESEARCH FOUNDATION, priority 2015, dated 2020).
